Test results: patent US11576383B2, “Pesticide composition containing thidiazuron and polyglutamic acid” (JIANGSU HUIFENG BIO AGRICULTURE CO., LTD., priority 2017, dated 2023)

Columns and labels:
Format in all cases: in vivo
[1] = test system: Southern corn leaf blight; test: Prevention of Southern corn leaf blight in the maize field comprehensive test; settings: 40 a.i. mg/kg
Experimental: (§1) Thidiazuron and polyglutamic acid were diluted with acetone according to a certain concentration and were sprayed to stems and leaves of crops, and influence of concentrations on growth of crops is assayed in the field, including comprehensive evaluation on plant height, spike number, setting percentage, disease-resistant condition, yield condition and the like of the crops. Plant height control rate=(plant height of a clean water control group-processed plant height)/plant height of the clean water control group*100% Spike number increase ratio=(processed plant spike number-plant spike number of a clean water control group)/plant spike number of the clean water control group*100% Setting percentage=filled grain number per spike/total grain number per spike*100% Prevention effect=(disease index of a clean water control group-processed disease index)/disease index of the clean water control group*100% Yield per mu increase ratio=(processed yield per mu-yield per mu of a clean water control group)/yield per mu of the clean water control group*100%
(§2) 1. Field Comprehensive Test of Mixing Thidiazuron and Polyglutamic Acid on Growth Regulation and Disease Resistance and Production Increase of Maize Crops
(§3) Sorghum variety: Suyu 23.
Pesticide application stage: a big horn stage of maize and a blooming stage of maize in which diseases such as Southern corn leaf blight are prone to occur. […]

indica = test: Comprehensive assay of compounding thidiazuron and polyglutamic acid on growth regulation of indica (field, stem and leaf spraying); settings: 50 a.i. mg/kg
Experimental: (§4) 1. Comprehensive Assay Test of Compounding Thidiazuron and Polyglutamic Acid on Growth Regulation of Indica
as §1

[2] = test system: banded sclerotial blight of indica; test: Disease control of banded sclerotial blight in the indica comprehensive assay; settings: 50 a.i. mg/kg
Experimental: as §4, §1

maize = test: Field comprehensive test of mixing thidiazuron and polyglutamic acid on growth regulation and production increase of maize; settings: 40 a.i. mg/kg
Experimental: as §1, §2, §3
Pesticide application stage: a big horn stage of maize and a blooming stage of maize in which diseases such as Southern corn leaf blight are prone to occur.
Pesticide application number of times: 2 times, 6 days asan interval. The examples of the preparation of the present invention are sprayed for three repeated times, and the result is the mean value.

For O=C(Nc1ccccc1)Nc1cnns1 [Thidiazuron], the “Southern corn leaf blight” value ([1]; disease index) was 14.74, the “Prevention Effect” value ([1]; Southern corn leaf blight, vs clean water control group) was 51.11% and the “Spike Number of Single Plant” value (indica) was 18.1 grains. The “Total Grain Number of Spike” value (indica) was 145.7 grains, the “filled grain number per spike” value (indica) was 132.2 grains and the “Setting Percentage” value (indica; filled grain number per spike/total grain number per spike) was 90.7%. The “Plant Height” value (indica; stem and leaf spraying 2 times, 8 days interval, investigated at later grouting stage) was 121.2 cm, the “Plant Height Control Rate” value (indica; vs clean water control group) was 5.0% and the “Production Increase Ratio (yield per mu increase ratio)” value (indica; vs clean water control group) was 5.5%. For the same molecule, the “Spike Number Increase Ratio” value (indica; vs clean water control group) was 4.0%, the Output (indica; yield per mu) was 537.5 667 M^2 and the “Prevention Effect” value ([2]; banded sclerotial blight of indica, vs clean water control group) was 49.8%. For the same molecule, the “Disease Index of Banded Sclerotial Blight” value ([2]; indica) was 14.8, the “Stem Diameter” value (maize) was 2.50 cm and the Thousand seed weight (maize) was 249.0 g. The “Plant Height” value (maize; applied 2 times, 6 days interval, mean of three repeats) was 129.0 cm, the “Control Rate (plant height)” value (maize; vs clean water control group) was 5.4% and the “Increase Ratio (output, unit yield per mu)” value (maize; vs clean water control group) was 6.1%. The “Increase Ratio (stem diameter)” value (maize; vs clean water control group) was 5.4%, the “Increase Ratio (thousand seed weight)” value (maize; vs clean water control group) was 5.4% and the Output (maize; yield per mu) was 637.9 667M^2.
